According to US8785655B2, “Ionic liquid solvents” (Dublin City University, priority 2009, dated 2014):

Tests used:
Absidia corymbifera 272 = assay: In vitro antifungal activity, MIC by microdilution (NCCLS M27-A); conditions: AC
Candida glabrata 20/l = assay: as above; conditions: CG
Protocol: (§1) In vitro antifungal activities of the compounds were evaluated on the collection of fungal strains deposited at the Department of Biological and Medical Sciences, Faculty of Pharmacy, Charles University, Czech Republic. All the isolates were maintained on Sabouraud dextrose agar prior to being tested.
(§2) Minimum inhibitory concentrations (MICs) were determined by the microdilution format of the NCCLS M27-A guidelines. […] RPMI 1640 (Sevapharma, Prague) medium supplemented with L-glutamine and buffered with 0.165 M morpholinepropanesulfonic acid to pH 7.0 was used as the test medium. The wells of the microdilution tray contained 100 μl of the RPMI 1640 medium with 2-fold serial dilutions of the compounds (1000 to 0.24 μmol/l for the new compounds) and 100 μl of inoculum suspension. Fungal inoculum in RPMI 1640 was prepared to give a final concentration of 5×103±0.2 cfu·ml-1. The trays were incubated at 35° C. and MICs were read visually for filamentous fungi and photometrically for yeasts as an optical density (OD) at 540 nm after 24 h and 48 h. The MICs were defined as 80% inhibition of the growth of control. MICs were determined twice and in duplicate. The deviations from the usually obtained were no higher than the nearest concentration value up and down the dilution scale.

[1] = system: Klebsiella pneumoniae D 11750/08; assay: Screen against bacteria, MIC/IC80; type: cell-based; conditions: KP
[2] = system: Staphylococcus aureus CCM 4516/08; assay: Screen against bacteria, MIC/IC80; type: cell-based; conditions: SA
[3] = system: Staphylococcus epidermidis H 6966/08; assay: Screen against bacteria, MIC/IC80; type: cell-based; conditions: SE
Candida tropicalis 156 = assay: In vitro antifungal activity, MIC by microdilution (NCCLS M27-A); conditions: CT
Protocol: as §1, §2

Candida krusei ATCC 6258 = assay: as above
[4] = system: Enterococcus sp. J 14365/08; assay: Screen against bacteria, MIC/IC80; type: cell-based; conditions: EF
[5] = system: Trichophyton mentagrophytes 445; assay: In vitro antifungal activity, MIC by microdilution (NCCLS M27-A); conditions: TM
[6] = system: Candida albicans ATCC 90028; assay: as above
Protocol: as §1, §2

[7] = system: Candida parapsilosis ATCC 22019; assay: as above; conditions: CP
Protocol: as §1, §2

[8] = system: Klebsiella pneumoniae J 14368/08 ESBL-positive; assay: Screen against bacteria, MIC/IC80; type: cell-based; conditions: KP-E
[9] = system: Aspergillus fumigatus 231; assay: In vitro antifungal activity, MIC by microdilution (NCCLS M27-A); conditions: AF
[10] = system: Candida lusitaniae 2446/l; assay: as above; conditions: CL
Escherichia coli CCM4517 = assay: Screen against bacteria, MIC/IC80; type: cell-based; conditions: EC
[11] = system: Pseudomonas aeruginosa CCM 1961; assay: Screen against bacteria, MIC/IC80; type: cell-based; conditions: PA
[12] = system: Candida albicans ATCC 44859; assay: In vitro antifungal activity, MIC by microdilution (NCCLS M27-A)
Protocol: as §1, §2

[13] = system: Staphylococcus aureus H 5996/08 Methiciline-resistant; assay: Screen against bacteria, MIC/IC80; type: cell-based; conditions: MRSA
Candida krusei E28 = assay: In vitro antifungal activity, MIC by microdilution (NCCLS M27-A)

SMILES	MIC/IC80 (Absidia corymbifera 272; 24 h) [µM]	MIC/IC80 (Absidia corymbifera 272; 48 h) [µM]	MIC/IC80 (Candida glabrata 20/l; 24 h) [µM]	MIC/IC80 (Candida glabrata 20/l; 48 h) [µM]	MIC/IC80 ([1]; 24 h) [µM]	MIC/IC80 ([1]; 48 h) [µM]	MIC/IC80 ([2]; 24 h) [µM]	MIC/IC80 ([2]; 48 h) [µM]	MIC/IC80 ([3]; 24 h) [µM]	MIC/IC80 ([3]; 48 h) [µM]	MIC/IC80 (Candida tropicalis 156; 24 h) [µM]	MIC/IC80 (Candida tropicalis 156; 48 h) [µM]	MIC/IC80 (Candida krusei ATCC 6258; CK1, 24 h) [µM]	MIC/IC80 (Candida krusei ATCC 6258; CK1, 48 h) [µM]	MIC/IC80 ([4]; 24 h) [µM]	MIC/IC80 ([4]; 48 h) [µM]	MIC/IC80 ([5]; 72 h) [µM]	MIC/IC80 ([5]; 120 h) [µM]	MIC/IC80 ([6]; CA2, 24 h) [µM]	MIC/IC80 ([6]; CA2, 48 h) [µM]	further results
CCCCCOC(=O)[C@@H](OC(=O)Cn1cc[n+](C)c1)c1ccccc1.[Br-] [KG824, S-3-methyl-1-[1-(pentoxycarbonyl)-1-phenylmethoxycarbonylmethyl]imidazolium bromide]	1000	1000	1000	>1000	>1000	>1000	>1000	>1000	>1000	>1000	>1000	>1000	1000	>1000	>1000	>1000	500	500	1000	>1000	MIC/IC80 ([7]; 24 h): >1000 µM; MIC/IC80 ([7]; 48 h): >1000 µM; MIC/IC80 ([8]; 24 h): >1000 µM; MIC/IC80 ([8]; 48 h): >1000 µM; MIC/IC80 ([9]; 24 h): 1000 µM; MIC/IC80 ([9]; 48 h): 1000 µM; MIC/IC80 ([10]; 24 h): >1000 µM; MIC/IC80 ([10]; 48 h): >1000 µM; MIC/IC80 (Escherichia coli CCM4517; 24 h): >1000 µM; MIC/IC80 (Escherichia coli CCM4517; 48 h): >1000 µM; MIC/IC80 ([11]; 24 h): >1000 µM; MIC/IC80 ([11]; 48 h): >1000 µM; MIC/IC80 ([12]; CA1, 24 h): 500 µM; MIC/IC80 ([12]; CA1, 48 h): >1000 µM; MIC/IC80 ([13]; 24 h): >1000 µM; MIC/IC80 ([13]; 48 h): >1000 µM; MIC/IC80 (Candida krusei E28; CK2, 24 h): 1000 µM; MIC/IC80 (Candida krusei E28; CK2, 48 h): >1000 µM
CCOCCOC(=O)[C@@H](OC(=O)Cn1cc[n+](C)c1)c1ccccc1.[Br-] [KG826, S-3-methyl-1-[1-(ethoxyethoxycarbonyl)-1-phenylmethoxycarbonylmethyl]imidazolium bromide]	>1000	>1000	>1000	>1000	>1000	>1000	>1000	>1000	>1000	>1000	>1000	>1000	>1000	>1000	>1000	>1000	>1000	>1000	>1000	>1000	MIC/IC80 ([7]; 24 h): >1000 µM; MIC/IC80 ([7]; 48 h): >1000 µM; MIC/IC80 ([8]; 24 h): >1000 µM; MIC/IC80 ([8]; 48 h): >1000 µM; MIC/IC80 ([9]; 24 h): >1000 µM; MIC/IC80 ([9]; 48 h): >1000 µM; MIC/IC80 ([10]; 24 h): >1000 µM; MIC/IC80 ([10]; 48 h): >1000 µM; MIC/IC80 (Escherichia coli CCM4517; 24 h): >1000 µM; MIC/IC80 (Escherichia coli CCM4517; 48 h): >1000 µM; MIC/IC80 ([11]; 24 h): >1000 µM; MIC/IC80 ([11]; 48 h): >1000 µM; MIC/IC80 ([12]; CA1, 24 h): >1000 µM; MIC/IC80 ([12]; CA1, 48 h): >1000 µM; MIC/IC80 ([13]; 24 h): >1000 µM; MIC/IC80 ([13]; 48 h): >1000 µM; MIC/IC80 (Candida krusei E28; CK2, 24 h): >1000 µM; MIC/IC80 (Candida krusei E28; CK2, 48 h): >1000 µM
CCCCCOC(=O)[C@H](OC(=O)C[n+]1ccn(C)c1)c1ccccc1 [KG833, R-3-methyl-1-[1-(pentoxycarbonyl)-1-phenylmethoxycarbonylmethyl]imidazolium bromide]	1000	1000	1000	>1000	>1000	>1000	1000	>1000	>1000	>1000	1000	>1000	1000	>1000	>1000	>1000	500	500	1000	>1000	MIC/IC80 ([7]; 24 h): >1000 µM; MIC/IC80 ([7]; 48 h): >1000 µM; MIC/IC80 ([8]; 24 h): >1000 µM; MIC/IC80 ([8]; 48 h): >1000 µM; MIC/IC80 ([9]; 24 h): 1000 µM; MIC/IC80 ([9]; 48 h): 1000 µM; MIC/IC80 ([10]; 24 h): >1000 µM; MIC/IC80 ([10]; 48 h): >1000 µM; MIC/IC80 (Escherichia coli CCM4517; 24 h): >1000 µM; MIC/IC80 (Escherichia coli CCM4517; 48 h): >1000 µM; MIC/IC80 ([11]; 24 h): >1000 µM; MIC/IC80 ([11]; 48 h): >1000 µM; MIC/IC80 ([12]; CA1, 24 h): 500 µM; MIC/IC80 ([12]; CA1, 48 h): >1000 µM; MIC/IC80 ([13]; 24 h): >1000 µM; MIC/IC80 ([13]; 48 h): >1000 µM; MIC/IC80 (Candida krusei E28; CK2, 24 h): 1000 µM; MIC/IC80 (Candida krusei E28; CK2, 48 h): >1000 µM
CCOCCOC(=O)[C@H](OC(=O)C[n+]1ccn(C)c1)c1ccccc1 [KG835, R-3-methyl-1-[1-(ethoxyethoxycarbonyl)-1-phenylmethoxycarbonylmethyl]imidazolium bromide]	>1000	>1000	>1000	>1000	>1000	>1000	>1000	>1000	>1000	>1000	>1000	>1000	>1000	>1000	>1000	>1000	>1000	>1000	>1000	>1000	MIC/IC80 ([7]; 24 h): >1000 µM; MIC/IC80 ([7]; 48 h): >1000 µM; MIC/IC80 ([8]; 24 h): >1000 µM; MIC/IC80 ([8]; 48 h): >1000 µM; MIC/IC80 ([9]; 24 h): >1000 µM; MIC/IC80 ([9]; 48 h): >1000 µM; MIC/IC80 ([10]; 24 h): >1000 µM; MIC/IC80 ([10]; 48 h): >1000 µM; MIC/IC80 (Escherichia coli CCM4517; 24 h): >1000 µM; MIC/IC80 (Escherichia coli CCM4517; 48 h): >1000 µM; MIC/IC80 ([11]; 24 h): >1000 µM; MIC/IC80 ([11]; 48 h): >1000 µM; MIC/IC80 ([12]; CA1, 24 h): >1000 µM; MIC/IC80 ([12]; CA1, 48 h): >1000 µM; MIC/IC80 ([13]; 24 h): >1000 µM; MIC/IC80 ([13]; 48 h): >1000 µM; MIC/IC80 (Candida krusei E28; CK2, 24 h): >1000 µM; MIC/IC80 (Candida krusei E28; CK2, 48 h): >1000 µM
